US10323036B2 (Nimbus Lakshmi, Inc., priority 2016, dated 2019)
Where two headings read alike, the source gives them in different places.

Legend:
TYK2 JH1 kinase = TYK2 JH1 kinase (Homo sapiens (Human), UniProt P29597); experiment: Tyk2 Radioactive Kinase Assay; assay type: biochemical; settings: ATP at 10 μM
Experimental: (§1) Peptide substrate, [KKSRGDYMTMQIG (SEQ ID NO: 2)], (20 μM) is prepared in reaction buffer (20 mM Hepes pH 7.5, 10 mM MgCl2, 1 mM EGTA, 0.02% Brij35, 0.02 mg/mL BSA, […], 2 mM DTT, 1% DMSO. TYK2 (Invitrogen) kinase is added, followed by compounds in DMSO. 33PATP is added to initiate the reaction in ATP at 10 μM. Kinase reaction is incubated for 120 min at room temp and reactions are spotted onto P81 ion exchange paper (Whatman #3698-915), and then washed extensively in 0.75% phosphoric acid, prior to reading the radioactivity counts. For JAK2 (Invitrogen) kinase assay the peptide substrate poly[Glu:Tyr] (4:1), 0.2 mg/ml is used, in the reaction carried out the same as for TYK2.

JAK2 JH1 kinase = JAK2 JH1 kinase (Homo sapiens (Human), UniProt O60674); experiment: JAK2 Radioactive Kinase Assay; assay type: biochemical; settings: ATP at 10 μM
Chain of JAK2 JH1 kinase (O60674 808-1132): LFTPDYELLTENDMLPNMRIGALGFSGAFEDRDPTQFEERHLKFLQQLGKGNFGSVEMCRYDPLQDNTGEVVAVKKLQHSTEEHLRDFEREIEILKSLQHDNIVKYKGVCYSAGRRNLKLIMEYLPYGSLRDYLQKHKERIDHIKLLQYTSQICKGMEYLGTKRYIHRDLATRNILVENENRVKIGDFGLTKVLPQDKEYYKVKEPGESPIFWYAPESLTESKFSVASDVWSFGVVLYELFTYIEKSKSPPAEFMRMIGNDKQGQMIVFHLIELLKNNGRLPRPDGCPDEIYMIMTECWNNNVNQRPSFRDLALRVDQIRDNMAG
Experimental: as §1

[1] = biological target: human TYK2 (JH2domain-pseudokinase) (Homo sapiens (Human), UniProt P29597); experiment: TYK2 JH2 Domain Binding Assay (KINOMEscan)
Chain of human TYK2 (JH2domain-pseudokinase) (P29597 556-888): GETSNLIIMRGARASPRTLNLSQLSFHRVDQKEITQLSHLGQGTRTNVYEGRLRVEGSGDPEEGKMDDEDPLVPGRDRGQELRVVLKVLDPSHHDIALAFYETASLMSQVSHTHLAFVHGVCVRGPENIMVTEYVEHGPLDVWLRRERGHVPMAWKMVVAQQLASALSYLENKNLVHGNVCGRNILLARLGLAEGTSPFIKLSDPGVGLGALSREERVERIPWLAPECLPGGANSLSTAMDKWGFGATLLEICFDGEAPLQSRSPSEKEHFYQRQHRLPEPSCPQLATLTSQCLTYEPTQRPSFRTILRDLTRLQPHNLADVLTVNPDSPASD

[2] = Table 5, Tyk2 JH2 Domain Binding Assay, read-out: JH2 Kd
[3] = Table 4, JH2 binding assay, read-out: JH2 Kd

Chain of TYK2 JH1 kinase (P29597 833-1187): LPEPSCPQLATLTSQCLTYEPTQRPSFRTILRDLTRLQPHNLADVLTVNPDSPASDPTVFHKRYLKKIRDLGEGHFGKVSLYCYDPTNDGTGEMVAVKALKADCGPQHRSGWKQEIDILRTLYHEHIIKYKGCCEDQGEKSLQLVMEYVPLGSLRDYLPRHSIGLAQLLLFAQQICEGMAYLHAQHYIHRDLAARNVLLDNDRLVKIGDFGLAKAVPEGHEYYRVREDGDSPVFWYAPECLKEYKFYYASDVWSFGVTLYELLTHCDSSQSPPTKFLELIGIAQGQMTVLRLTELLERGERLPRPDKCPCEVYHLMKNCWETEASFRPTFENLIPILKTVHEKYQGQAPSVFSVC

Row | SMILES | Kd [1, 3] [nM] | other results
1 | COc1c(Nc2cc(NC(=O)C3CC3)ncc2-c2ncc(F)s2)cccc1-c1nnn(C)n1 [VIII-2, N-(5-(5-fluorothiazol-2-yl)-4-((2-methoxy-3-(2-methyl-2H-tetrazol-5-yl)phenyl)amino)pyridin-2-yl)cyclopropanecarboxamide] | – | inhibitory activity against TYK2 JH1 kinase function (TYK2 JH1 kinase): no detectable inhibitory activity; inhibitory activity against JAK2 JH1 kinase function (JAK2 JH1 kinase): no detectable inhibitory activity; Kd [1, 2]: 10 to 100 nM
2 | COc1c(Nc2cc(NC(=O)C3CC3)nc3[nH]n(C)c(=O)c23)cccc1-c1nnn(C)n1 [Compound I-1] | < 0.1 | inhibitory activity against TYK2 JH1 kinase function (TYK2 JH1 kinase): no detectable inhibitory activity
3 | COC(=O)c1nnc(-c2cnc(NC(=O)C3CC3)cc2Nc2cccc(-c3ncn(C)n3)c2OC)o1 [VIII-4, methyl 5-(6-(cyclopropanecarboxamido)-4-((2-methoxy-3-(1-methyl-1H-1,2,4-triazol-3-yl)phenyl)amino)pyridin-3-yl)-1,3,4-oxadiazole-2-carboxylate] | – | inhibitory activity against TYK2 JH1 kinase function (TYK2 JH1 kinase): no detectable inhibitory activity; inhibitory activity against JAK2 JH1 kinase function (JAK2 JH1 kinase): no detectable inhibitory activity; Kd [1, 2]: 1 to 10 nM
4 | COCc1ccnc(Nc2cc(Nc3cccc(-c4nnn(C)n4)c3OC)c3c(=O)n(C)[nH]c3n2)c1 [Compound I-2, 4-((2-methoxy-3-(2-methyl-2H-tetrazol-5-yl)phenyl)amino)-6-((4-(methoxymethyl)pyridin-2-yl)amino)-2-methyl-1,2-dihydro-3H-pyrazolo[3,4-b]pyridin-3-one] | 0.1 to 0.5 | inhibitory activity against TYK2 JH1 kinase function (TYK2 JH1 kinase): no detectable inhibitory activity
5 | COc1c(Nc2cc(Nc3cc(C)c(F)cn3)nc3[nH]n(C)c(=O)c23)cccc1-c1ncn(C)n1 [Compound I-21, 6-((5-fluoro-4-methylpyridin-2-yl)amino)-4-((2-methoxy-3-(1-methyl-1H-1,2,4-triazol-3-yl)phenyl)amino)-2-methyl-1,2-dihydro-3H-pyrazolo[3,4-b]pyridin-3-one] | 0.1 to 0.5 | –
6 | COc1c(Nc2cc(Nc3cc(C)ccn3)nc3[nH]n(C)c(=O)c23)cccc1-c1nnn(C)n1 [Compound I-5, 4-((2-methoxy-3-(2-methyl-2H-tetrazol-5-yl)phenyl)amino)-2-methyl-6-((4-methylpyridin-2-yl)amino)-1,2-dihydro-3H-pyrazolo[3,4-b]pyridin-3-one] | > 10 | –
7 | CN(c1cc(F)c(F)cc1Nc1cc(NC(=O)C2CC2)nc2[nH]n(C)c(=O)c12)S(C)(=O)=O [Compound I-230, N-(4-((4,5-difluoro-2-(N-methylmethylsulfonamido)phenyl)amino)-2-methyl-3-oxo-2,3-dihydro-1H-pyrazolo[3,4-b]pyridin-6-yl)cyclopropanecarboxamide] | 0.5 to 1 | –
8 | COc1c(Nc2cc(Nc3cc(C#N)ncn3)nc3[nH]n(C)c(=O)c23)cccc1-c1ncn(C)n1 [Compound I-31, 6-((4-((2-methoxy-3-(1-methyl-1H-1,2,4-triazol-3-yl)phenyl)amino)-2-methyl-3-oxo-2,3-dihydro-1H-pyrazolo[3,4-b]pyridin-6-yl)amino)pyrimidine-4-carbonitrile] | < 0.1 | –
9 | COc1c(Nc2cc(Nc3cc(C)nc(C)n3)nc3[nH]n(C)c(=O)c23)cccc1C(N)=O [Compound I-103, 3-((6-((2,6-dimethylpyrimidin-4-yl)amino)-2-methyl-3-oxo-2,3-dihydro-1H-pyrazolo[3,4-b]pyridin-4-yl)amino)-2-methoxybenzamide] | > 10 | –
10 | CCNC(=O)c1cccc(Nc2cc(Nc3cccc(-c4nnn(C)n4)c3OC)c3c(=O)n(C)[nH]c3n2)n1 [Compound I-66, N-ethyl-6-((4-((2-methoxy-3-(2-methyl-2H-tetrazol-5-yl)phenyl)amino)-2-methyl-3-oxo-2,3-dihydro-1H-pyrazolo[3,4-b]pyridin-6-yl)amino)picolinamide] | 0.5 to 1 | –
11 | COc1ccccc1Nc1cc(NC(=O)C2CC2)nc2[nH]n(C)c(=O)c12 [Compound I-61, N-(4-((2-methoxyphenyl)amino)-2-methyl-3-oxo-2,3-dihydro-1H-pyrazolo[3,4-b]pyridin-6-yl)cyclopropanecarboxamide] | 1 to 10 | –
12 | CCc1ccc(Nc2cc(NC(=O)C3CC3)nc3[nH]n(C)c(=O)c23)c(N(C)S(C)(=O)=O)c1 [Compound I-217, N-(4-((4-ethyl-2-(N-methylmethylsulfonamido)phenyl)amino)-2-methyl-3-oxo-2,3-dihydro-1H-pyrazolo[3,4-b]pyridin-6-yl)cyclopropanecarboxamide] | < 0.1 | –
13 | CN(c1ccccc1Nc1cc(NC(=O)C2CC2)nc2[nH]n(C)c(=O)c12)S(C)(=O)=O [Compound I-129, N-(2-methyl-4-((2-(N-methylmethylsulfonamido)phenyl)amino)-3-oxo-2,3-dihydro-1H-pyrazolo[3,4-b]pyridin-6-yl)cyclopropanecarboxamide] | 0.1 to 0.5 | –
14 | COc1c(Cl)cccc1Nc1cc(Nc2cnc(C(C)(C)OC)c(C#N)n2)nc2[nH]n(C)c(=O)c12 [Compound I-155, 6-((4-((3-chloro-2-methoxyphenyl)amino)-2-methyl-3-oxo-2,3-dihydro-1H-pyrazolo[3,4-b]pyridin-6-yl)amino)-3-(2-methoxypropan-2-yl)pyrazine-2-carbonitrile] | 0.5 to 1 | –
15 | Cn1[nH]c2nc(NC(=O)[C@@H]3CC3(F)F)cc(Nc3ccc(C4CC4)cc3S(C)(=O)=O)c2c1=O [Compound I-237] | 1 to 10 | –
16 | COc1c(Nc2cc(Nc3ccc(N4CCCCC4)cn3)nc3[nH]n(C)c(=O)c23)cccc1-c1nnn(C)n1 [Compound I-11, 4-((2-methoxy-3-(2-methyl-2H-tetrazol-5-yl)phenyl)amino)-2-methyl-6-((5-(piperidin-1-yl)pyridin-2-yl)amino)-1,2-dihydro-3H-pyrazolo[3,4-b]pyridin-3-one] | > 10 | –
17 | COc1c(Nc2cc(Nc3cc(C)nc(C)n3)nc3[nH]n(C)c(=O)c23)cccc1-c1ccn(C)n1 [Compound I-123, 6-((2,6-dimethylpyrimidin-4-yl)amino)-4-((2-methoxy-3-(1-methyl-1H-pyrazol-3-yl)phenyl)amino)-2-methyl-1,2-dihydro-3H-pyrazolo[3,4-b]pyridin-3-one] | 0.1 to 0.5 | –
18 | CNc1nc(-c2cccc(-c3nnn(C)n3)c2OC)n2cc(NC(=O)C3CC3)ncc12 [XVI-2] | – | Kd [1, 2]: > 100 nM; Kd ([1]; Tyk2 JH2 Domain Binding Assay, read-out: Kd): 10 to 185 nM
19 | Cn1[nH]c2nc(Nc3cccc(C(F)(F)F)n3)cc(Nc3ccccc3S(C)(=O)=O)c2c1=O [Compound I-113, 2-methyl-4-((2-(methylsulfonyl)phenyl)amino)-6-((6-(trifluoromethyl)pyridin-2-yl)amino)-1,2-dihydro-3H-pyrazolo[3,4-b]pyridin-3-one] | 0.1 to 0.5 | –
20 | COc1c(F)cccc1Nc1cc(Nc2cc(C)ccn2)nc2[nH]n(C)c(=O)c12 [Compound I-83, 4-((3-fluoro-2-methoxyphenyl)amino)-2-methyl-6-((4-methylpyridin-2-yl)amino)-1,2-dihydro-3H-pyrazolo[3,4-b]pyridin-3-one] | 1 to 10 | –
21 | COc1c(F)cccc1Nc1cc(Nc2ccc(C#N)cn2)nc2[nH]n(C)c(=O)c12 [Compound I-79, 6-((4-((3-fluoro-2-methoxyphenyl)amino)-2-methyl-3-oxo-2,3-dihydro-1H-pyrazolo[3,4-b]pyridin-6-yl)amino)nicotinonitrile] | 1 to 10 | –
